Source: patent EP0503710A2, “Flunarizine containing anti-neoplastic compositions” (JANSSEN PHARMACEUTICA N.V., priority 1991, dated 1992)

Tests used:
[1] = tested on: murine sarcoma MO4 (semi-resistant cell line); test: Subrenal capsule implant of MO4 tumour fragments in mice, change in tumor size at day 7; type: in vivo; conditions: daily intraperitoneal day 1 until day 6
Source text: (§1) The potential of flunarizine as a potent enhancer of adriamycine (ADR) cytotoxicity in the murine sarcoma MO4 (semi-resistant cell line) "in vitro" and "in vivo" and its reversed adriamycine resistance in the P388/ADR (adriamycine resistant cell line) murine leukemia "in vivo"can be demostrated by the following procedure.
(§2) Fragments of subcutaneously grown tumours were inserted under the renal capsule in mice and their initial size measured under a microscope. At day 7, the mice were killed and the final size of the implants determined. The change in tumor size was expressed as a percentage of the initial size, the latter considered to be 100%. Daily intraperitoneal treatment with ADR alone or in combination with flunarizine which was formulated in hydroxypropyl-β-cyclodextrin was installed from day 1 until day 6. Control animals received the vehicle hydroxypropyl-ß-cyclodextrin.

[2] = tested on: P388/ADR (adriamycine resistant cell line) murine leukemia; test: Subrenal capsule implant of P388/ADR tumour fragments in mice, change in tumor size at day 7; type: in vivo; conditions: P388/ADR implants under renal capsule, monotherapy, daily intraperitoneal day 1 until day 6
Source text: as §1, §2

Structure (SMILES) | effect on tumor growth ([1]; MO4 implants under renal capsule, flunarizine monotherapy in hydroxypropyl-β-cyclodextrin, size at day 7) | effect on tumor growth [2] | effect on tumor growth ([1]; MO4-tumor, adriamycine alone, dosages lower than 2.5 mg/kg) | growth reduction ([1]; MO4-tumor, adriamycine alone, half the maximal tolerated dose 2.5 mg/kg)
Fc1ccc(C(c2ccc(F)cc2)N2CCN(CC=Cc3ccccc3)CC2)cc1 [Flunarizine, 1-[bis(4-fluorophenyl)methyl]-4-(3-phenyl-2-propenyl)piperazine] | no effect | no effect | – | –
COc1cccc2c1C(=O)c1c(O)c3c(c(O)c1C2=O)C[C@@](O)(C(=O)CO)C[C@@H]3O[C@H]1C[C@H](N)[C@H](O)[C@H](C)O1 [adriamycine] | – | inactive | no effect | 25%
